Assay results published in PMC10082216 (Nature Communications, 2023).
Where two headings read alike, the source gives them in different places.

What was measured:
[1] = test system: mature stage V gametocytes (NF54 strain); experiment: microbe, parasite or virus in culture; assay type: cell-based, Plasmodium falciparum; conditions: for Retention IC10: Fig. 3 dose-response; for IC50 / IC90: Plasmodium falciparum; for IC90: NF54, read-out: Retention IC90
Summary of the method: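 NF54 stage V gametocytes (day 17, density-purified, 0.5% hematocrit) exposed 24 h to compounds at 1.11 µM (primary) or in dose-response. Killing scored by MitoTracker staining; gametocytemia by Sybr Green/CellMask staining, with microsphiltration for stiffening. DMSO 0.05% negative control.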

[2] = Hit scoring on safety in human subjects and pharmacokinetics; conditions: for Score (PK): peak plasma concentration vs IC50
From the text: Hits from the ReFrame library were further selected based on safety, preferably oral administration (high score if oral), and potential availability for widespread use.

[3] = NF54, 24 h, read-out: Stiffening IC50 (retention)

| Structure (SMILES) | Retention 1 ([1]; Concentration 0.00457) | Retention 2 ([1]; Concentration 0.00457) | Retention 1 ([1]; Concentration 0.01372) | Retention 2 ([1]; Concentration 0.01372) | Retention 1 ([1]; Concentration 0.04115) | Retention 2 ([1]; Concentration 0.04115) | Retention 1 ([1]; Concentration 0.12346) | Retention 2 ([1]; Concentration 0.12346) | Retention 1 ([1]; Concentration 0.37037) | Retention 2 ([1]; Concentration 0.37037) | Retention 1 ([1]; Concentration 1.11111) | Retention 2 ([1]; Concentration 1.11111) | Retention 1 ([1]; Concentration 3.33333) | Retention 2 ([1]; Concentration 3.33333) | Retention 1 ([1]; Concentration 10) | Retention 2 ([1]; Concentration 10) | IC50 [1, 3] [µM] | IC90 [1] [µM] | Score (safety) [2] | Score (PK) [2] | further results |
| --- | --- | --- | --- | --- | --- | --- | --- | --- | --- | --- | --- | --- | --- | --- | --- | --- | --- | --- | --- | --- | --- |
| CNC(=O)N1C[C@@H](C)N(c2ccc(C(=O)Nc3ccc(-c4ccc(-c5c[nH]c([C@@H]6CCCN6C(=O)[C@@H](NC(=O)OC)C(C)C)n5)cc4)c(OC(F)(F)F)c3)cn2)C[C@@H]1C [TD-6450] | 6.791 | 14.2035 | 30.2208 | 10.7025 | 30.7002 | 37.9062 | 45.793 | 33.0106 | 16.5379 | 35.496 | 46.8849 | 58.9321 | 60.4317 | 53.8901 | 70.8882 | 66.7706 | 0.55 | 4.5 | 3 | 3 (Peak plasma concentration between IC50 and 3 IC50 (Score = 3)) | outcome of primary screen (hit definition) ([1]; 1.11 µM): met the hit definition; Retention IC10 [1]: 0.03 µM; IC50 ([1]; NF54, read-out: IC50 during the screening campaign, all gametocytes stained): 0.455 ± 0.304 µM; differential retention rate versus DMSO upon primary screening ([1]; one well/compound, 1.11 µM): 32% |
| COc1cc2c(cc1OC)[C@@H]1Cc3ccc(OC)c(OC)c3CN1CC2 [(S)-(-)-Tetrahydropalmatine] | 36.1518 | 18.1904 | 42.4295 | 17.9082 | 39.0679 | 21.6203 | 52.9692 | 17.6021 | 34.5737 | 33.9194 | 41.4215 | 25.646 | 50.7426 | 20.0803 | 49.3139 | 22.5855 | 0.001 | 0.006 | 3 | 6 (Peak plasma concentration higher than 3 IC50 (Score = 6)) | – |
| C[C@H]1Cc2c([nH]c3cc(Cl)c(F)cc23)[C@@]2(N1)C(=O)Nc1ccc(Cl)cc12 [NITD609, cipargamin] | 5.495 | 24.2833 | 19.4986 | 27.3994 | 24.1896 | 16.3872 | 74.5556 | 59.61 | 100 | 100 | 100 | 94.1314 | 100 | 100 | 100 | 100 | 0.11 | 0.16 | 3 | 6 (Peak plasma concentration higher than 3 IC50 (Score = 6)) | Retention IC10 [1]: 0.06 µM |
